The NIST ThermoML archive (doi:10.1021/je800942u)
Numbers after ± are expanded uncertainties.

Assays:
[1] = mn = molality of the nth substance listed, in mol/kg; conditions: 101 kPa, Liquid
[2] = wn = mass fraction of the nth substance listed; conditions: 101 kPa, Liquid
[3] = 101 kPa, Liquid

With `CCO` [ethanol] + NCCCCCCN the mass density ([1]; 303.15 K, m2 = 0) was 780.8 ± 0.8 kg/m3, the viscosity ([1]; 303.15 K, m2 = 0) was 0.979 ± 0.013 mPa·s and the mass density ([1]; 308.15 K, m2 = 0) was 776.5 ± 0.8 kg/m3. It also gave a viscosity ([1]; 308.15 K, m2 = 0) of 0.8877 ± 0.012 mPa·s, a mass density ([1]; 313.15 K, m2 = 0) of 770.3 ± 0.8 kg/m3 and a viscosity ([1]; 313.15 K, m2 = 0) of 0.8086 ± 0.011 mPa·s. It also gave a mass density ([1]; 318.15 K, m2 = 0) of 765.2 ± 0.9 kg/m3, a viscosity ([1]; 318.15 K, m2 = 0) of 0.7335 ± 0.011 mPa·s and a mass density ([1]; 323.15 K, m2 = 0) of 760.3 ± 0.9 kg/m3. The viscosity ([1]; 323.15 K, m2 = 0) was 0.6677 ± 0.01 mPa·s, the mass density ([1]; 328.15 K, m2 = 0) was 754.5 ± 1 kg/m3 and the viscosity ([1]; 328.15 K, m2 = 0) was 0.6104 ± 0.0096 mPa·s.
With `CCO` [ethanol] + O the mass density ([2]; 303.15 K, w2 = 0.15) was 822.7 ± 0.8 kg/m3, the viscosity ([2]; 303.15 K, w2 = 0.15) was 1.383 ± 0.033 mPa·s and the mass density ([2]; 303.15 K, w2 = 0.2) was 836 ± 0.9 kg/m3. For the same compound, the viscosity ([2]; 303.15 K, w2 = 0.2) was 1.511 ± 0.036 mPa·s, the mass density ([2]; 303.15 K, w2 = 0.25) was 848.8 ± 0.9 kg/m3 and the viscosity ([2]; 303.15 K, w2 = 0.25) was 1.611 ± 0.038 mPa·s. It also gave a mass density ([2]; 308.15 K, w2 = 0.15) of 818.4 ± 0.9 kg/m3, a viscosity ([2]; 308.15 K, w2 = 0.15) of 1.222 ± 0.03 mPa·s and a mass density ([2]; 308.15 K, w2 = 0.2) of 831.8 ± 0.9 kg/m3. The viscosity ([2]; 308.15 K, w2 = 0.2) was 1.332 ± 0.032 mPa·s, the mass density ([2]; 308.15 K, w2 = 0.25) was 843 ± 0.9 kg/m3 and the viscosity ([2]; 308.15 K, w2 = 0.25) was 1.402 ± 0.033 mPa·s. It also gave a mass density ([2]; 313.15 K, w2 = 0.15) of 813.1 ± 0.9 kg/m3, a viscosity ([2]; 313.15 K, w2 = 0.15) of 1.085 ± 0.027 mPa·s and a mass density ([2]; 313.15 K, w2 = 0.2) of 827.1 ± 0.9 kg/m3. The viscosity ([2]; 313.15 K, w2 = 0.2) was 1.174 ± 0.029 mPa·s, the mass density ([2]; 313.15 K, w2 = 0.25) was 838.2 ± 0.9 kg/m3 and the viscosity ([2]; 313.15 K, w2 = 0.25) was 1.229 ± 0.03 mPa·s. The mass density ([2]; 318.15 K, w2 = 0.15) was 807.1 ± 1 kg/m3, the viscosity ([2]; 318.15 K, w2 = 0.15) was 0.9649 ± 0.024 mPa·s and the mass density ([2]; 318.15 K, w2 = 0.2) was 821 ± 1 kg/m3. The viscosity ([2]; 318.15 K, w2 = 0.2) was 1.025 ± 0.025 mPa·s, the mass density ([2]; 318.15 K, w2 = 0.25) was 833.6 ± 1 kg/m3 and the viscosity ([2]; 318.15 K, w2 = 0.25) was 1.085 ± 0.027 mPa·s. The mass density ([2]; 323.15 K, w2 = 0.15) was 801.4 ± 1 kg/m3, the viscosity ([2]; 323.15 K, w2 = 0.15) was 0.8601 ± 0.022 mPa·s and the mass density ([2]; 323.15 K, w2 = 0.2) was 814.6 ± 1 kg/m3. For the same compound, the viscosity ([2]; 323.15 K, w2 = 0.2) was 0.9113 ± 0.023 mPa·s, the mass density ([2]; 323.15 K, w2 = 0.25) was 827.5 ± 1 kg/m3 and the viscosity ([2]; 323.15 K, w2 = 0.25) was 0.9573 ± 0.024 mPa·s. For the same compound, the mass density ([2]; 328.15 K, w2 = 0.15) was 796.9 ± 1 kg/m3, the viscosity ([2]; 328.15 K, w2 = 0.15) was 0.7734 ± 0.02 mPa·s and the mass density ([2]; 328.15 K, w2 = 0.2) was 809.1 ± 1.1 kg/m3. For the same compound, the viscosity ([2]; 328.15 K, w2 = 0.2) was 0.8123 ± 0.021 mPa·s, the mass density ([2]; 328.15 K, w2 = 0.25) was 822.5 ± 1.1 kg/m3 and the viscosity ([2]; 328.15 K, w2 = 0.25) was 0.8538 ± 0.022 mPa·s.
`CCO` [ethanol] showed a mass density ([3]; 303.15 K) of 780.8 ± 0.8 kg/m3, a viscosity ([3]; 303.15 K) of 0.979 ± 0.013 mPa·s and a mass density ([3]; 308.15 K) of 776.5 ± 0.8 kg/m3. The viscosity ([3]; 308.15 K) was 0.8877 ± 0.012 mPa·s, the mass density ([3]; 313.15 K) was 770.3 ± 0.8 kg/m3 and the viscosity ([3]; 313.15 K) was 0.8086 ± 0.011 mPa·s. The mass density ([3]; 318.15 K) was 765.2 ± 0.9 kg/m3, the viscosity ([3]; 318.15 K) was 0.7335 ± 0.011 mPa·s and the mass density ([3]; 323.15 K) was 760.3 ± 0.9 kg/m3. The viscosity ([3]; 323.15 K) was 0.6677 ± 0.01 mPa·s, the mass density ([3]; 328.15 K) was 754.5 ± 1 kg/m3 and the viscosity ([3]; 328.15 K) was 0.6104 ± 0.0096 mPa·s.
For `NCCCCCCN` [1,6-hexanediamine] + CCO, the mass density ([1]; 303.15 K, m1 = 0.1293) was 782.3 ± 0.8 kg/m3, the viscosity ([1]; 303.15 K, m1 = 0.1293) was 1.011 ± 0.013 mPa·s and the mass density ([1]; 303.15 K, m1 = 0.2808) was 784.2 ± 0.8 kg/m3. For the same compound, the viscosity ([1]; 303.15 K, m1 = 0.2808) was 1.053 ± 0.013 mPa·s, the mass density ([1]; 303.15 K, m1 = 0.4406) was 786.3 ± 0.8 kg/m3 and the viscosity ([1]; 303.15 K, m1 = 0.4406) was 1.102 ± 0.014 mPa·s. For the same compound, the mass density ([1]; 303.15 K, m1 = 0.6113) was 788.6 ± 0.8 kg/m3, the viscosity ([1]; 303.15 K, m1 = 0.6113) was 1.162 ± 0.014 mPa·s and the mass density ([1]; 303.15 K, m1 = 0.7834) was 791.1 ± 0.8 kg/m3. It also gave a viscosity ([1]; 303.15 K, m1 = 0.7834) of 1.202 ± 0.015 mPa·s, a mass density ([1]; 303.15 K, m1 = 0.9637) of 793.8 ± 0.8 kg/m3 and a viscosity ([1]; 303.15 K, m1 = 0.9637) of 1.258 ± 0.015 mPa·s. The mass density ([1]; 308.15 K, m1 = 0.1293) was 777.9 ± 0.8 kg/m3, the viscosity ([1]; 308.15 K, m1 = 0.1293) was 0.9157 ± 0.012 mPa·s and the mass density ([1]; 308.15 K, m1 = 0.2808) was 779.7 ± 0.8 kg/m3. For the same compound, the viscosity ([1]; 308.15 K, m1 = 0.2808) was 0.9505 ± 0.012 mPa·s, the mass density ([1]; 308.15 K, m1 = 0.4406) was 781.9 ± 0.8 kg/m3 and the viscosity ([1]; 308.15 K, m1 = 0.4406) was 0.9928 ± 0.013 mPa·s. The mass density ([1]; 308.15 K, m1 = 0.6113) was 784.7 ± 0.8 kg/m3, the viscosity ([1]; 308.15 K, m1 = 0.6113) was 1.046 ± 0.013 mPa·s and the mass density ([1]; 308.15 K, m1 = 0.7834) was 787.3 ± 0.8 kg/m3. For the same compound, the viscosity ([1]; 308.15 K, m1 = 0.7834) was 1.081 ± 0.013 mPa·s, the mass density ([1]; 308.15 K, m1 = 0.9637) was 790.1 ± 0.8 kg/m3 and the viscosity ([1]; 308.15 K, m1 = 0.9637) was 1.133 ± 0.014 mPa·s. It also gave a mass density ([1]; 313.15 K, m1 = 0.1293) of 771.6 ± 0.8 kg/m3, a viscosity ([1]; 313.15 K, m1 = 0.1293) of 0.8341 ± 0.011 mPa·s and a mass density ([1]; 313.15 K, m1 = 0.2808) of 773.3 ± 0.8 kg/m3. It also gave a viscosity ([1]; 313.15 K, m1 = 0.2808) of 0.8606 ± 0.012 mPa·s, a mass density ([1]; 313.15 K, m1 = 0.4406) of 775.2 ± 0.8 kg/m3 and a viscosity ([1]; 313.15 K, m1 = 0.4406) of 0.8994 ± 0.012 mPa·s. For the same compound, the mass density ([1]; 313.15 K, m1 = 0.6113) was 777.2 ± 0.8 kg/m3, the viscosity ([1]; 313.15 K, m1 = 0.6113) was 0.9437 ± 0.012 mPa·s and the mass density ([1]; 313.15 K, m1 = 0.7834) was 779.3 ± 0.9 kg/m3. It also gave a viscosity ([1]; 313.15 K, m1 = 0.7834) of 0.975 ± 0.013 mPa·s, a mass density ([1]; 313.15 K, m1 = 0.9637) of 781.5 ± 0.9 kg/m3 and a viscosity ([1]; 313.15 K, m1 = 0.9637) of 1.019 ± 0.013 mPa·s. For the same compound, the mass density ([1]; 318.15 K, m1 = 0.1293) was 766.4 ± 0.9 kg/m3, the viscosity ([1]; 318.15 K, m1 = 0.1293) was 0.7569 ± 0.011 mPa·s and the mass density ([1]; 318.15 K, m1 = 0.2808) was 767.9 ± 0.9 kg/m3. It also gave a viscosity ([1]; 318.15 K, m1 = 0.2808) of 0.7849 ± 0.011 mPa·s, a mass density ([1]; 318.15 K, m1 = 0.4406) of 769.6 ± 0.9 kg/m3 and a viscosity ([1]; 318.15 K, m1 = 0.4406) of 0.8154 ± 0.011 mPa·s. It also gave a mass density ([1]; 318.15 K, m1 = 0.6113) of 771.4 ± 0.9 kg/m3, a viscosity ([1]; 318.15 K, m1 = 0.6113) of 0.8571 ± 0.012 mPa·s and a mass density ([1]; 318.15 K, m1 = 0.7834) of 773.3 ± 0.9 kg/m3. It also gave a viscosity ([1]; 318.15 K, m1 = 0.7834) of 0.8816 ± 0.012 mPa·s, a mass density ([1]; 318.15 K, m1 = 0.9637) of 775.3 ± 0.9 kg/m3 and a viscosity ([1]; 318.15 K, m1 = 0.9637) of 0.9201 ± 0.012 mPa·s. For the same compound, the mass density ([1]; 323.15 K, m1 = 0.1293) was 761.4 ± 0.9 kg/m3, the viscosity ([1]; 323.15 K, m1 = 0.1293) was 0.6866 ± 0.01 mPa·s and the mass density ([1]; 323.15 K, m1 = 0.2808) was 762.8 ± 0.9 kg/m3. For the same compound, the viscosity ([1]; 323.15 K, m1 = 0.2808) was 0.7105 ± 0.01 mPa·s, the mass density ([1]; 323.15 K, m1 = 0.4406) was 764.3 ± 0.9 kg/m3 and the viscosity ([1]; 323.15 K, m1 = 0.4406) was 0.7356 ± 0.011 mPa·s. For the same compound, the mass density ([1]; 323.15 K, m1 = 0.6113) was 766 ± 0.9 kg/m3, the viscosity ([1]; 323.15 K, m1 = 0.6113) was 0.7761 ± 0.011 mPa·s and the mass density ([1]; 323.15 K, m1 = 0.7834) was 767.8 ± 0.9 kg/m3. For the same compound, the viscosity ([1]; 323.15 K, m1 = 0.7834) was 0.798 ± 0.011 mPa·s, the mass density ([1]; 323.15 K, m1 = 0.9637) was 769.7 ± 0.9 kg/m3 and the viscosity ([1]; 323.15 K, m1 = 0.9637) was 0.8301 ± 0.011 mPa·s. For the same compound, the mass density ([1]; 328.15 K, m1 = 0.1293) was 755.5 ± 1 kg/m3, the viscosity ([1]; 328.15 K, m1 = 0.1293) was 0.6275 ± 0.0097 mPa·s and the mass density ([1]; 328.15 K, m1 = 0.2808) was 756.8 ± 1 kg/m3. It also gave a viscosity ([1]; 328.15 K, m1 = 0.2808) of 0.6485 ± 0.0099 mPa·s, a mass density ([1]; 328.15 K, m1 = 0.4406) of 758.3 ± 1 kg/m3 and a viscosity ([1]; 328.15 K, m1 = 0.4406) of 0.6737 ± 0.01 mPa·s. The mass density ([1]; 328.15 K, m1 = 0.6113) was 759.9 ± 1 kg/m3, the viscosity ([1]; 328.15 K, m1 = 0.6113) was 0.7013 ± 0.01 mPa·s and the mass density ([1]; 328.15 K, m1 = 0.7834) was 761.6 ± 1 kg/m3. For the same compound, the viscosity ([1]; 328.15 K, m1 = 0.7834) was 0.7227 ± 0.01 mPa·s, the mass density ([1]; 328.15 K, m1 = 0.9637) was 763.4 ± 1 kg/m3 and the viscosity ([1]; 328.15 K, m1 = 0.9637) was 0.7564 ± 0.011 mPa·s.
